Test: log P by HPLC on a reversed-phase column (C 18), EEC Directive 79/831 Annex V.A8
Format: physicochemical
Conditions: for logP: 0.1% aqueous formic acid and acetonitrile; for chromatographic logP: reversed-phase HPLC column (C 18), preparation examples
Procedure: In table 1, the log P values were determined in accordance with EEC Directive 79/831 Annex V.A8 by HPLC (High Performance Liquid Chromatography) on a reversed-phase column (C 18), using the method described below:
Temperature: 40° C.; Mobile phases: 0.1% aqueous formic acid and acetonitrile; linear gradient from 10% acetonitrile to 90% acetonitrile.
Calibration was carried out using unbranched alkan-2-ones (comprising 3 to 16 carbon atoms) with known log P values (determination of the log P values by the retention times using linear interpolation between two successive alkanones). lambda-max-values were determined using UV-spectra from 200 nm to 400 nm and the peak values of the chromatographic signals.

[1] = Table 4 (aldehydes of formula IV), HPLC C 18, 40° C.
[2] = HPLC on reversed-phase column (C 18), 40° C., linear gradient 10% to 90% acetonitrile
[3] = HPLC, reversed-phase column (C 18), 40° C., linear gradient 10% to 90% acetonitrile

logP [3] | Compound | further results
4.93 | Cn1nc(C(F)F)c(C(=O)N(Cc2ccc(-c3ccccc3)cc2C2(C)CC2)C2CC2)c1F [I.033] | 
4.15 | Cn1ccc(-c2ccc(CN(C(=O)c3c(C(F)F)nn(C)c3F)C3CC3)c(C3(C)CC3)c2)c1 [I.034] | 
5.26 | Cc1ccccc1-c1ccc(CN(C(=O)c2c(C(F)F)nn(C)c2F)C2CC2)c(C2(C)CC2)c1 [I.035] | 
5.03 | Cn1nc(C(F)F)c(C(=O)N(Cc2ccc(-c3ccc(F)c(F)c3)cc2C2(C)CC2)C2CC2)c1F [I.036] | 
3.94 | Cn1nc(C(F)F)c(C(=O)N(Cc2ccc(C3=CCOCC3)cc2C2(C)CC2)C2CC2)c1F [I.037] | 
4.96 | Cn1nc(C(F)F)c(C(=O)N(Cc2ccc(-c3cccc(F)c3)cc2C2(C)CC2)C2CC2)c1F [I.038] | 
4.23 | Cn1nc(C(F)F)c(C(=O)N(Cc2ccc(-c3ccoc3)cc2C2(C)CC2)C2CC2)c1F [I.039] | 
4.61 | Cn1nc(C(F)F)c(C(=O)N(Cc2ccc(-c3ccsc3)cc2C2(C)CC2)C2CC2)c1F [I.040] | 
4.96 | Cn1nc(C(F)F)c(C(=O)N(Cc2ccc(-c3ccc(F)cc3)cc2C2(C)CC2)C2CC2)c1F [I.041] | 
5.31 | Cc1ccc(F)cc1-c1ccc(CN(C(=O)c2c(C(F)F)nn(C)c2F)C2CC2)c(C2(C)CC2)c1 [I.042] | 
4.73 | C=C(C)c1ccc(CN(C(=O)c2c(C(F)F)nn(C)c2F)C2CC2)c(C2(C)CC2)c1 [I.043] | 
2.35 | Cn1nc(C(F)F)c(C(=O)N(Cc2ccc(-c3cccnc3)cc2C2(C)CC2)C2CC2)c1F [I.044] | 
2.00 | Cn1nc(C(F)F)c(C(=O)N(Cc2ccc(-c3ccncc3)cc2C2(C)CC2)C2CC2)c1F [I.045] | 
3.09 | Cn1nc(C(F)F)c(C(=O)N(Cc2ccc(-c3ccc4ncccc4c3)cc2C2(C)CC2)C2CC2)c1F [I.046] | 
3.87 | Cn1nc(C(F)F)c(C(=O)N(Cc2ccc(C3CCOCC3)cc2C2(C)CC2)C2CC2)c1F [I.047] | 
4.01 | Cn1nc(C(F)F)c(C(=O)N(Cc2cc(F)c(F)cc2C2(C)CC2)C2CC2)c1F [I.048] | 
4.16 | Cn1nc(C(F)F)c(C(=O)N(Cc2cc(F)c(F)cc2C2(C)CC2)C2CC2)c1Cl [I.049] | 
4.90 | Cn1nc(C(F)F)c(C(=S)N(Cc2cc(F)c(F)cc2C2(C)CC2)C2CC2)c1Cl [I.050] | 
4.36 | Cc1cc(CN(C(=O)c2c(C(F)F)nn(C)c2F)C2CC2)c(C2(C)CC2)cc1C [I.051] | 
4.53 | Cc1cc(CN(C(=O)c2c(C(F)F)nn(C)c2Cl)C2CC2)c(C2(C)CC2)cc1C [I.052] | 
3.33 | COc1cc(CN(C(=O)c2c(C(F)F)nn(C)c2F)C2CC2)c(C2(C)CC2)cc1OC [I.053] | 
3.46 | COc1cc(CN(C(=O)c2c(C(F)F)nn(C)c2Cl)C2CC2)c(C2(C)CC2)cc1OC [I.054] | 
3.96 | COc1cc(CN(C(=S)c2c(C(F)F)nn(C)c2F)C2CC2)c(C2(C)CC2)cc1OC [I.055] | 
4.09 | COc1cc(CN(C(=S)c2c(C(F)F)nn(C)c2Cl)C2CC2)c(C2(C)CC2)cc1OC [I.056] | 
4.56 | Cn1nc(C(F)F)c(C(=O)N(Cc2cc(Br)ccc2C2(C)CC2)C2CC2)c1Cl [I.057] | 
4.36 | Cn1nc(C(F)F)c(C(=O)N(Cc2cc(Br)ccc2C2(C)CC2)C2CC2)c1F [I.058] | 
4.34 | Cn1nc(C(F)F)c(C(=O)N(Cc2cc(C(F)(F)F)ccc2C2(C)CC2)C2CC2)c1F [I.059] | 

Further lines, the compound ahead of its results:

Compound | logP [3] | further results
1-(2-formyl-4-methylphenyl)cyclopropanecarbonitrile [IV.16] |  | logP [1]: 2.08
3-fluoro-2-(1-methylcyclopropyl)benzaldehyde [IV.14] |  | logP [1]: 3.13
Cn1nc(C(F)F)c(C(=O)N(Cc2cc(Cl)ccc2C2(C)CC2(Cl)Cl)C2CC2)c1F (racemic) [I.168] |  | logP [2]: 4.39
Cn1nc(C(F)F)c(C(=O)N(Cc2cc(C3CC3)ccc2C2(C)CC2(Cl)Cl)C2CC2)c1F (racemic) [I.169] |  | logP [2]: 4.59
Cn1nc(C(F)F)c(C(=O)N(Cc2cc(F)ccc2C2(C)CC2(Cl)Cl)C2CC2)c1F (racemic) [I.170] |  | logP [2]: 4.09
Cn1nc(C(F)F)c(C(=O)N(Cc2cc(F)ccc2C2(C)CC2(Cl)Cl)C2CC2)c1Cl (racemic) [I.171] |  | logP [2]: 4.21
Cc1ccc(C2(C)CC2(Cl)Cl)c(CN(C(=O)c2c(C(F)F)nn(C)c2F)C2CC2)c1 (racemic) [I.172] |  | logP [2]: 4.24
Cn1nc(C(F)F)c(C(=O)N(Cc2c(C3(C)CC3(Cl)Cl)ccc(Cl)c2Cl)C2CC2)c1F (racemic) [I.173] |  | logP [2]: 4.71
Cn1nc(C(F)F)c(C(=O)N(Cc2c(C3(C)CC3(Cl)Cl)ccc(Cl)c2Cl)C2CC2)c1Cl (racemic) [I.174] |  | logP [2]: 4.81
Cn1nc(C(F)F)c(C(=O)N(Cc2c(C3(C)CC3(Cl)Cl)ccc(Cl)c2F)C2CC2)c1Cl (racemic) [I.175] |  | logP [2]: 4.61
Cn1nc(C(F)F)c(C(=O)N(Cc2c(C3(C)CC3(Cl)Cl)ccc(Cl)c2F)C2CC2)c1F (racemic) [I.176] |  | logP [2]: 4.46
Cc1ccc(C2(C)CC2(Cl)Cl)c(CN(C(=O)c2c(C(F)F)nn(C)c2Cl)C2CC2)c1Cl (racemic) [I.177] |  | logP [2]: 4.78
Cc1ccc(C2(C)CC2(Cl)Cl)c(CN(C(=O)c2c(C(F)F)nn(C)c2F)C2CC2)c1Cl (racemic) [I.178] |  | logP [2]: 4.67
Cc1ccc(C2(C)CC2(Cl)Cl)c(CN(C(=O)c2c(C(F)F)nn(C)c2F)C2CC2)c1F (racemic) [I.179] |  | logP [2]: 4.41
CC1(c2ccc(Cl)cc2Br)CC1 [2-bromo-4-chloro-1-(1-methylcyclopropyl)benzene] |  | chromatographic logP: 4.93
C=C(C)c1ccc(Cl)cc1Br [2-bromo-4-chloro-1-(prop-1-en-2-yl)benzene] |  | chromatographic logP: 4.91
Cn1nc(C(F)F)c(C(=O)N(Cc2ccccc2C2(C)CC2)C2CC2)c1F [I.001] | 3.85 | 
Cn1nc(C(F)F)c(C(=O)N(Cc2ccccc2C2(C)CC2)C2CC2)c1Cl [I.002] | 4.01 | 
Cn1nc(C(F)F)c(C(=S)N(Cc2ccccc2C2(C)CC2)C2CC2)c1F [I.003] | 4.46 | 
Cn1nc(C(F)F)c(C(=S)N(Cc2ccccc2C2(C)CC2)C2CC2)c1Cl [I.004] | 4.63 | 
Cn1nc(C(F)F)c(C(=O)N(Cc2cccc(Cl)c2C2(C)CC2)C2CC2)c1F [I.005] | 4.30 | 
Cn1nc(C(F)F)c(C(=O)N(Cc2cccc(Cl)c2C2(C)CC2)C2CC2)c1Cl [I.006] | 4.44 | 
Cn1nc(C(F)F)c(C(=O)N(Cc2cccc(C3CCCCC3)c2C2(C)CC2)C2CC2)c1F [I.007] | 5.74 | 
Cn1nc(C(F)F)c(C(=O)N(Cc2cccc(F)c2C2(C)CC2)C2CC2)c1F [I.008] | 3.89 | 

Compound | logP [3] | further results
Cn1nc(C(F)F)c(C(=O)N(Cc2cccc(F)c2C2(C)CC2)C2CC2)c1Cl [I.009] | 3.99 | 
Cn1nc(C(F)F)c(C(=S)N(Cc2cccc(F)c2C2(C)CC2)C2CC2)c1F [I.010] | 4.49 | 
Cn1nc(C(F)F)c(C(=S)N(Cc2cccc(F)c2C2(C)CC2)C2CC2)c1Cl [I.011] | 4.64 | 
Cn1nc(C(F)F)c(C(=O)N(Cc2cccc(-c3ccccc3)c2C2(C)CC2)C2CC2)c1F [I.012] | 4.73 | 
Cn1nc(C(F)F)c(C(=O)N(Cc2cccc(C3=CC4CCC3C4)c2C2(C)CC2)C2CC2)c1F (stereo not drawn) [I.013] | 5.78 | 
Cn1nc(C(F)F)c(C(=O)N(Cc2cccc(C3=CCCCC3)c2C2(C)CC2)C2CC2)c1F [I.014] | 5.59 | 
C=C(C)c1cccc(CN(C(=O)c2c(C(F)F)nn(C)c2F)C2CC2)c1C1(C)CC1 [I.015] | 4.64 | 
Cn1nc(C(F)F)c(C(=O)N(Cc2ccc3c(c2C2(C)CC2)OCO3)C2CC2)c1F [I.016] | 3.53 | 
Cn1nc(C(F)F)c(C(=O)N(Cc2ccc3c(c2C2(C)CC2)OCO3)C2CC2)c1Cl [I.017] | 3.67 | 
Cn1nc(C(F)F)c(C(=O)N(Cc2ccc(Cl)cc2C2(C)CC2)C2CC2)c1F [I.018] | 4.43 | 
Cn1nc(C(F)F)c(C(=O)N(Cc2ccc(Cl)cc2C2(C)CC2)C2CC2)c1Cl [I.019] | 4.54 | 
Cn1nc(C(F)F)c(C(=O)N(Cc2ccc(C3CC3)cc2C2(C)CC2)C2CC2)c1F [I.020] | 4.51 | 
Cn1nc(C(F)F)c(C(=O)N(Cc2ccc(F)cc2C2(C)CC2)C2CC2)c1F [I.021] | 3.92 | 
Cn1nc(C(F)F)c(C(=O)N(Cc2ccc(F)cc2C2(C)CC2)C2CC2)c1Cl [I.022] | 4.06 | 
Cn1nc(C(F)F)c(C(=S)N(Cc2ccc(F)cc2C2(C)CC2)C2CC2)c1F [I.023] | 4.56 | 
Cn1nc(C(F)F)c(C(=S)N(Cc2ccc(F)cc2C2(C)CC2)C2CC2)c1Cl [I.024] | 4.74 | 
CC(C)c1ccc(CN(C(=O)c2c(C(F)F)nn(C)c2F)C2CC2)c(C2(C)CC2)c1 [I.025] | 4.90 | 
Cc1ccc(CN(C(=O)c2c(C(F)F)nn(C)c2F)C2CC2)c(C2(C)CC2)c1 [I.026] | 4.21 | 
Cc1ccc(CN(C(=O)c2c(C(F)F)nn(C)c2Cl)C2CC2)c(C2(C)CC2)c1 [I.027] | 4.36 | 
COc1ccc(CN(C(=O)c2c(C(F)F)nn(C)c2F)C2CC2)c(C2(C)CC2)c1 [I.028] | 3.69 | 
COc1ccc(CN(C(=O)c2c(C(F)F)nn(C)c2Cl)C2CC2)c(C2(C)CC2)c1 [I.029] | 3.83 | 
COc1ccc(CN(C(=S)c2c(C(F)F)nn(C)c2F)C2CC2)c(C2(C)CC2)c1 [I.030] | 4.34 | 
COc1ccc(CN(C(=S)c2c(C(F)F)nn(C)c2Cl)C2CC2)c(C2(C)CC2)c1 [I.031] | 4.51 | 
Cn1nc(C(F)F)c(C(=O)N(Cc2ccc(Oc3ccccc3)cc2C2(C)CC2)C2CC2)c1F [I.032] | 4.91 | 

From patent US10070645B2, “N-cycloalkyl-N-{[2-(1-substitutedcycloalkyl)phenyl]methylene}-(thio)carboxamide derivatives” (BAYER CROPSCIENCE AKTIENGESELLSCHAFT, priority 2013, dated 2018)
